Measured values from patent publication US10509041B2, “Glucose derivative, and cell imaging method and imaging agent using said derivative” (HIROSAKI UNIVERSITY, priority 2014, dated 2019).
Several values for one entry are separate records, joined by “and”; a condition that tells them apart may be missing. Equal entries are not always repeated.

Legend:
[1] = system: mouse insulinoma cells (MIN6); experiment: Influence of excessive D-glucose or L-glucose on increase in fluorescence intensity caused by CDG or CLG in MIN6 cells; format: cell-based; conditions: 100 μM, 37° C. 5 min, MIN6 culture day 13, versus non-excessive glucose control
Protocol: Whether or not increase in fluorescence intensity caused by the administration of the blue fluorescent D-glucose derivative CDG (100 μM) to the mouse insulinoma cells MIN6 at culture day 13 was inhibited by a large excess of D-glucose or L-glucose was examined. The blue fluorescent L-glucose derivative CLG was similarly analyzed as a control. However, the following conditions were changed.
Although the usual KRB solution contains 129 mM NaCl and 5.6 mM D-glucose, the osmotic pressure of a control solution (non-excessive glucose administration group solution) for this experiment was adjusted to 270 mOsm by substituting a portion of NaCl with choline-Cl, in order to equalize charge and osmotic pressure between the control solution and a KRB solution for excessive glucose administration. Also, the KRB solution for excessive glucose administration was allowed to contain NaCl and glucose according to the composition given below. In this respect, choline-Cl was added thereto in order to equalize osmotic pressure between this solution and the control solution (non-excessive glucose administration group solution).
100 mM NaCl and 5.6 mM D-glucose (non-excessive glucose administration group solution)
100 mM NaCl and 50 mM D-glucose (50 mM excessive D-glucose administration group solution)
100 mM NaCl, 50 mM L-glucose, and 5.6 mM D-glucose (50 mM excessive L-glucose administration group solution)
These dedicated KRB solutions were also used as a solution for preparing CDG and CLG solutions in this Example.
CDG and CLG were placed on different plates for the experiment. A CDG solution (or a CLG solution) prepared using each dedicated KRB solution was administered thereto using an 8-channel pipette (37° C., 5 min). Before the administration, replacement with each dedicated KRB solution was carried out in advance, and the autofluorescence of each well was measured with a fluorescence microplate reader. The time from the start of the replacement to immediately before the administration was approximately 28 minutes.
After the completion of the administration, first, the fluorescent solution in each well was temporarily diluted using 200 μL of the dedicated KRB solution and then diluted using 300 μL of the usual KRB solution.
The influence of the presence of 50 mM L-glucose was also studied as a control in evaluating the influence of the presence of a large excess (50 mM) of D-glucose on increase in fluorescence intensity.

[2] = system: mouse insulinoma cells (MIN6); experiment: Increase in fluorescence intensity (uptake) after administration of fluorescent glucose derivative to MIN6 cells, influence of cytochalasin B (CB) or phloretin (PHT), fluorescence microplate reader; format: cell-based; conditions: for effect of PHT on increase in fluorescence intensity (uptake) caused by administration: CDG and CLG on the same dish
[3] = Fluorescence spectrum (excitation and fluorescence maxima); format: physicochemical
Text: The fluorescence spectra of CDG synthesized in (1) and QDG synthesized in (2) were compared with the fluorescence spectrum of 2-NBDLG (manufactured by Peptide Institute, Inc.).
The numeric values described above the graph denote the fluorescence maximum of CDG and QDG, respectively. It is evident that the fluorescence maximum was largely shifted to shorter wavelength as compared with the fluorescence maximum of 2-NBDLG present around 550 nm.

SMILES | effect of 50 mM D-glucose on increase in fluorescence intensity caused by administration [1] | effect of 50 mM L-glucose on increase in fluorescence intensity caused by administration [1] | effect of PHT on increase in fluorescence intensity (uptake) caused by administration ([2]; MIN6 culture day 15, 5 minutes) | increase in fluorescence intensity caused by administration, compared with CDG (D/L stereoselectivity) ([2]; same dish, MIN6 culture day 15, 5 minutes) | maximum excitation wavelength (Ex max) [3] [nm] | maximum fluorescence wavelength (Em max) [3] [nm] | fluorescence intensity in the presence of PHT relative to the absence of PHT ([2]; CDG 100 μM, 37° C. 5 minutes, PHT 150 μM, MIN6 culture day 13, average, two independent experiments)
O=c1ccc2ccc(NC3C(O)OC(CO)[C@H](O)[C@H]3O)cc2o1 (stereo partly drawn) [CLG, 2-deoxy-2-(2-oxo-2H-chromen-7-yl)amino-L-glucose] | slightly inhibited | not inhibited | significantly inhibited | significantly smaller | 366.5 | 454.5 | –
O=c1ccc2ccc(NC3C(O)OC(CO)[C@@H](O)[C@@H]3O)cc2o1 (stereo partly drawn) [CDG, 2-deoxy-2-(2-oxo-2H-chromen-7-yl)amino-D-glucose] | significantly suppressed | not suppressed | significantly inhibited | – | 366.5 | 454.5 | 28.5% and 28.8%
